Assays:
[1] = tested on: CCN1 promoter; assay: CCN1-luciferase reporter in HeLa cells; format: cell-based, human; conditions: 6 h, indicated concentrations
Excerpt: (§1) Activation of TEAD transcription factors in response to YAP binding induces the expression of many genes that encode proteins known to be involved in promoting cell proliferation and migration (see Supplement Figure 14). The best characterized TEAD target genes associated with the promotion of cell proliferation and migration are CCN1 and CTGF.[39],[59],[60] […] We therefore tested whether CPD3 inhibited the promoter activity of known TEAD target genes, CCN1 and CTGF, in the HeLa transformed cell line and primary rat VSMCs (RaVSMCs). Cells were transfected with plasmids expressing bioluminescent firefly luciferase reporter genes under the control of either the CCN1 or CTGF promoter regions. […] As both CCN1 and CTGF are classical TEAD target genes, this is consistent with the inhibition of TEAD activity by CPD3.
TNT1-minP reporter containing the Troponin-T minimal promoter was generated by digesting 8xGTIIC-luciferase plasmid (Addgene #34615) with Kpn1 and BglII to remove the TEAD elements, followed by blunt end re-ligation. A 2.177 kb fragment of the human CCN1 promoter containing two proximal TEAD elements (Hg19;chr1:86044316–chr1:86046493) was described previously[39] and cloned into pGL4-luciferase (Promega). […]

[2] = tested on: HeLa cells; assay: EdU proliferation assay in HeLa cells; format: cell-based, human; conditions: for cell proliferation (EdU incorporation): 18 h then 6 h 10 μM EdU
Experimental: Cell proliferation was measured using the Click-iT EdU 488 assay (Sigma-Aldrich). Briefly, the cells were treated with indicated concentrations of compounds for 24 h with the last 4 h being in the presence of 10 μM EdU. The cells were fixed in 4% formaldehyde and stained for EdU incorporation, following the kit’s standard protocol. The cells were counterstained with Hoechst 33342 nucleic acid for 20 min. Fluorescent images of at least three fields of view per well were counted using ImageJ software. Real-time analysis of cell migration was performed using an IncuCyte ZOOM live cell imaging system (Essen BioScience) according to the manufacturer’s instructions. Briefly, the cells were seeded (1.2 × 10^4 cells/well for HeLa cells, 1.5 × 10^4 cells/well for RaVSMCs, and 1 × 10^4 cells/well) into ImageLock 96-well plates. After 36 h, the cells were pretreated overnight with indicated concentrations of compounds. The wells were scratched using a WoundMaker tool, and the media were replaced containing test compounds. Phase contrast images of cell migration into the wounded area were acquired hourly for 24 h. Relative wound confluence was calculated using the Cell Migration Image analysis module of the IncuCyte ZOOM software.

[3] = tested on: CTGF promoter; assay: CTGF-luciferase reporter in RaVSMCs; format: cell-based, rat
Excerpt: as §1
Figure 9 Compound 3.1 inhibits TEAD target gene expression, cell proliferation, and cell migration in RaVSMCs. […] Total RNA was analyzed for mRNA levels of TEAD-target genes (D) or constitutive housekeeping genes (E) by qRT-PCR. […] Total cell lysates were analyzed for CCN1 protein expression by Western blotting (F). […] RaVSMCs (I) or HuVSMC (J) were treated with indicated concentrations of compound 3.1 and cell migration quantified using IncuCyte real time migration assay (n = 4). […]

| Structure (SMILES) | CCN1-luciferase reporter gene activity [1] | doses at which EdU incorporation was significantly inhibited [2] | cell proliferation (EdU incorporation) [2] | IC50 ([3]; Rattus norvegicus, 6 hr, read-out: IC50, CTGF-LUC (as printed in Figure 9C)) [µM] | CTGF-luciferase reporter gene activity ([3]; 6 h, indicated concentrations) |
| --- | --- | --- | --- | --- | --- |
| Cc1ccc2c(c1)c1c3n2CCNC3CCC1 (stereo not shown) [CPD3.1] | dose-dependent inhibition | above 40 μM | dose-dependently inhibited HeLa cell proliferation | 58 |  |
| Cc1ccc2c(c1)c1c3n2CCN(CC(O)CN2CCN(C(=O)c4ccco4)CC2)C3CCC1 (stereo not shown) [CPD3] | strong and significant dose-dependent inhibition |  | dose-dependently inhibited cell proliferation |  | strong and significant dose-dependent inhibition |

From publication PMC6701825, “Antiproliferative and Antimigratory Effects of a Novel YAP–TEAD Interaction Inhibitor Identified Using in Silico Molecular Docking” (Journal of Medicinal Chemistry, 2019)
